{"source": "patent US20220218806A1", "about": "“PEPTIDES AND CONJUGATES FOR TREATMENT OF ARTHRITIS” (CRL-SCI Corporation, priority 2019, published 2022)", "key": {"[1]": {"conditions": "in mice; cited from earlier work"}, "spleen cells": {"system": "spleen cells", "assay": "Cytokines secreted by rhG1-stimulated spleen cell cultures (MagPix)", "format": "cell-based, BALB/c mice", "conditions": "7.5 μg/ml rhG1 4 days, stimulated less non-stimulated", "experimental": "(§1) Animals were euthanized on day 35 after the first control or LEAPS vaccination, and sera was collected. For histopathology, hind limbs (from 5 mice/treatment groups plus 3 normal mice limbs) were dissected and fixed in 10% buffered formalin. The specimens were embedded in paraffin and sectioned. Adjacent tissue sections were stained separately with TB and HE. Microscopic analysis and scoring of joint damage were carried out independently under code by Bolder BioPath. Serum anti-LEAPS peptide antibody levels were determined by ELISA using Neutavidin plates and Biotin labeled peptides for loading onto plates. To determine cytokine production by spleen cell cultures, after a 4-day stimulation of spleen cells with 7.5 μg/ml rhG1 (or no treatment as control), cytokines secreted into the culture media were assayed by MagPix as 9-plex or 6-plex kits from R&D Systems. For intracellular cytokines and FoxP3 detection, spleen cells from 5 mice from each group were cultured with rhG1 for 4 days. The cells were treated with PMA, ionomycin, and GolgiStop for 4 hours, stained for cell surface markers and intracellular cytokines or Foxp3. Samples were run on a FACS Canto flow cytometer and the results analyzed by FACS Diva software. Statistical analysis of data was done using GraphPad Prism 7 software package. Nonparametric and multiple comparison test were conducted as described. […]"}, "GIA model of RA [2]": {"system": "GIA model of RA", "assay": "Histopathology of hind limbs (ankles, hind paws) of diseased mice after vaccination", "format": "in vivo, BALB/c mice"}, "GIA model of RA [3]": {"system": "GIA model of RA", "assay": "Visual arthritis score (VAS) after therapeutic LEAPS vaccination in rhG1-induced arthritis", "format": "in vivo, BALB/c mice", "conditions": "overall conclusion"}, "CD4+ spleen T cells": {"system": "CD4+ spleen T cells", "assay": "Intracellular cytokines and FoxP3 in spleen T cells by flow cytometry", "format": "cell-based, BALB/c mice", "experimental": "as §1"}, "[4]": {"system": "beDerG-PG70, bePG275cit, beOVA-OR8, beDerG-PG275cit, bePG70, beDerG-GGG", "assay": "Serum anti-LEAPS peptide antibody ELISA (biotinylated peptides on NeutrAvidin plates)", "format": "in vivo, BALB/c mice", "conditions": "sera of vaccinated mice, day 35"}, "[5]": {"conditions": "in humans; cited from earlier work"}, "[6]": {"conditions": "ankles, 40x magnification, day 35"}, "[7]": {"conditions": "hind paws, digit joints, 16x magnification"}}, "note": "“Also recorded” adds a separate entry of the source. Read-outs that look alike come from different tables or passages of the source. Square brackets hold non-standard residues; d marks the D form. Ends that are not written are not given here. Cit = NC(=O)NCCC[C@H](N)C(=O)O"}
{"substance": "ATEGRVRVNSAYQDK-amide (ATEGRVRVNSAYQDK-NH2) [PG70, proteoglycan aggrecan (G1) residues 70-84]", "values": [{"measurement": "Immunogenicity of epitope", "setting": "[1]", "value": "more immunogenic than PG70Cit"}]}
{"substance": "DGQEEKAGVVSTGLIGGGMDMCSAGWLADCitSVR-amide (DGQEEKAGVVSTGLIGGGMDMCSAGWLAD[Cit]SVR-NH2; not fully specified) [DerG-PG275Cit]", "values": [{"measurement": "Net secreted IFNγ", "setting": "spleen cells", "value": "induced"}, {"measurement": "Net secreted IL17A", "setting": "spleen cells", "value": "induced"}, {"measurement": "Cartilage damage, ankle histopathology", "setting": "GIA model of RA [2]; [6]", "value": "mild"}, {"measurement": "Inflammation, ankle histopathology", "setting": "GIA model of RA [2]; [6]", "value": "moderate"}, {"measurement": "Joints affected, ankle histopathology", "setting": "GIA model of RA [2]; [6]", "value": "the ankle and several digit joints"}, {"measurement": "Joints affected, hind paw histopathology", "setting": "GIA model of RA [2]; hind paws, 16x magnification", "value": "several digit joints"}, {"measurement": "Cartilage damage, hind paw histopathology", "setting": "GIA model of RA [2]; [7]", "value": "mild"}, {"measurement": "Inflammation, hind paw histopathology", "setting": "GIA model of RA [2]; [7]", "value": "moderate"}, {"measurement": "Therapeutic effect / protection in the GIA model of RA", "setting": "GIA model of RA [3]", "value": "therapeutic in the GIA model of RA with high efficacy"}, {"measurement": "Treg cell activation (FoxP3)", "setting": "CD4+ spleen T cells; CD4+ spleen T cells, rhG1 4 days", "value": "appeared to activate Treg cells"}, {"measurement": "Serum antibodies to vaccine peptides (OD 450 nm)", "setting": "[4]", "value": "does not induce antibodies to either DerG or PG275Cit or the conjugate; also recorded: induced antibodies against neither the DerG element nor the PG275Cit element"}]}
{"substance": "GQEEKAGVVSTGLIGGGMDMCSAGWLADRSVR-NH2 [DerG-PG275]", "values": [{"measurement": "Therapeutic effect / protection in the GIA model of RA", "setting": "GIA model of RA [3]", "value": "can provide protection alone"}, {"measurement": "Modulation of Th2, Treg, Th1 cells and cytokines", "setting": "CD4+ spleen T cells; overall conclusion", "value": "does not appear to up modulate Th2 or Treg or Th1 cells or cytokines"}]}
{"substance": "MDMCSAGWLADCitSVR-amide (MDMCSAGWLAD[Cit]SVR-NH2; not fully specified) [PG275Cit]", "values": [{"measurement": "Immunogenicity of epitope", "setting": "[1]", "value": "more immunogenic than PG275"}, {"measurement": "Immunogenicity of epitope", "setting": "[5]", "value": "more immunogenic than PG275"}]}
